Earlier results on two compounds are cited in patent publication US12274791B2, “Multiple unit dosage form having a therapeutic agent in combination with a nutritional supplement” (Bonafide Health, LLC, priority 2007, dated 2025).

Like-named read-outs stand apart in the source and are kept apart here.

As to `[Cl][Cr]([Cl])[Cl]` [chromium chloride], where the note is “rats, levels several thousand times the upper limit of the ESADDI for chromium for humans (based on body weight)”, the toxic effects entry is given as “without toxic effects”.
Regarding Chromium picolinate, the toxic effects result (rat, in vivo) is listed as “without toxic effects”.
